This passage reports IC50 results from publication PMC3330828 (2012).

Assay [1] concerns the target T1, caspase-3 (Homo sapiens, UniProt P42574).
T1 sequence (P42574 29-175): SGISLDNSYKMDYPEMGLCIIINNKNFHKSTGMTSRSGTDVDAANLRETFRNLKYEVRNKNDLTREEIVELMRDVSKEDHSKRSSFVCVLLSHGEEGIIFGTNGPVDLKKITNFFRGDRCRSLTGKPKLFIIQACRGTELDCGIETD
T1 sequence (P42574 176-277): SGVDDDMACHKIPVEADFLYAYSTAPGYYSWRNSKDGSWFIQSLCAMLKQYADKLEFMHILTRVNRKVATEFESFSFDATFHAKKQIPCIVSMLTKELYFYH
Briefly: in vitro fluorometric enzyme assay. The assay is classed as biochemical.

Assay [2] concerns the target T2, caspase-1 (Homo sapiens, UniProt P29466).
T2 sequence (P29466 120-297): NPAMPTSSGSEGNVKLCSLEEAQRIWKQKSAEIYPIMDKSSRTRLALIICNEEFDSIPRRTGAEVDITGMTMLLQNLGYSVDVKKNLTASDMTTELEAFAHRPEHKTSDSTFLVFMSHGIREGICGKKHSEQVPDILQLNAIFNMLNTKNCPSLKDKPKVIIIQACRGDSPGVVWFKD
T2 sequence (P29466 317-404): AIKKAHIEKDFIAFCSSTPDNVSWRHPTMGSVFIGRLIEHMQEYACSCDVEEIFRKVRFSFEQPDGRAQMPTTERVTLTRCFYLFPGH
Briefly: in vitro fluorometric enzyme assay. Type of assay: biochemical.

Take berkedrimane A [compound 1]: the 50% inhibitory concentration (IC50) worked out at 200 µM in assay [1] and 100 µM in assay [2].

Consider berkedrimane B [compound 2], for which the IC50 in assay [1] is 50 µM; in assay [2], 90 µM.
